According to patent US12338256B2, “Aza-tetracyclic oxazepine compounds and uses thereof” (Genentech, Inc., priority 2022, dated 2025):

Key:
[1] = system: HPAC (homozygous mutant KRAS G12D human pancreatic cell line); assay: KRAS 3D-Cell Proliferation Assay, HPAC (Example 503); assay type: cell-based; details: Homo sapiens, HPAC, 168 h, HPAC 3D culture, 7 days, CellTiter-Glo 3D; read-out: Prolif HPAC 3D ATP IC50
Summary of the method: (§1)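 KRAS G12D homozygous pancreatic lines and KRAS wild-type lung lines grown as 3D cultures in ultra-low-attachment wells in RPMI-1640/10% FBS, dosed after overnight with compound dilution series (0.3% DMSO final) for 7 days at 37 °C. ATP read by CellTiter-Glo 3D luminescence; IC50 from 4-parameter Hill fit, normalized to DMSO and 1 μM staurosporine.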

[2] = system: H1975 (KRAS wild type human lung adenocarcinoma cell line); assay: KRAS 3D-Cell Proliferation Assay, H1975 (Example 503); assay type: cell-based; details: Homo sapiens, NCI-H1975, 168 h, H1975 3D culture, 7 days, CellTiter-Glo 3D; read-out: Prolif H1975 3D ATP IC50
Summary of the method: as §1

Structure (SMILES)	IC50 [1]	IC50 [2]
Cc1cc(N)c(F)c(-c2nc3c4c(nc(OC[C@@H]5CC[C@H]6COCCN65)nc4c2F)N2C[C@H]4CC[C@H](N4)[C@H]2[C@H](C)O3)c1CC(F)F [Compound 231, 4-(2,2-Difluoroethyl)-2-fluoro-3-((5S,5aS,6S,9R)-1-fluoro-12-(((6S,8aS)-hexahydro-1H-pyrrolo[2,1-c][1,4]oxazin-6-yl)methoxy)-5-methyl-5a,6,7,8,9,10-hexahydro-5H-4-oxa-3,10a,11,13,14-pentaaza-6,9-methanonaphtho[1,8-ab]heptalen-2-yl)-5-methylaniline]	39.8 nM	13200 nM
Cc1nc(N)cc(-c2nc3c4c(nc(OC[C@]56CCCN5CC(F)(F)C6)nc4c2F)N2C[C@H]4CC[C@H](N4)[C@H]2[C@H](C)O3)c1C(F)(F)F [Compound 217, 4-((5S,5aS,6S,9R)-12-(((R)-2,2-difluorotetrahydro-1H-pyrrolizin-7a(5H)-yl)methoxy)-1-fluoro-5-methyl-5a,6,7,8,9,10-hexahydro-5H-4-oxa-3,10a,11,13,14-pentaaza-6,9-methanonaphtho[1,8-ab]heptalen-2-yl)-6-methyl-5-(trifluoromethyl)pyridin-2-amine]	38.8 nM	12600 nM
Cc1nc(N)cc(-c2nc3c4c(nc(OCC5(CN6C[C@@H](C)O[C@@H](C)C6)CC5)nc4c2F)N2C[C@H]4CC[C@H](N4)[C@H]2[C@H](C)O3)c1C(F)(F)F [Compound 218, 4-((5S,5aS,6S,9R)-12-((1-(((2R,6S)-2,6-Dimethylmorpholino)methyl)cyclopropyl)methoxy)-1-fluoro-5-methyl-5a,6,7,8,9,10-hexahydro-5H-4-oxa-3,10a,11,13,14-pentaaza-6,9-methanonaphtho[1,8-ab]heptalen-2-yl)-6-methyl-5-(trifluoromethyl)pyridin-2-amine]	1.36 nM	384 nM
Cc1cc(N)cc(-c2nc3c4c(nc(OC[C@@H]5CC[C@H]6COCCN65)nc4c2F)N2C[C@H]4CC[C@H](N4)[C@H]2[C@H](C)O3)c1CC(F)F [Compound 230, 4-(2,2-Difluoroethyl)-3-((5S,5aS,6S,9R)-1-fluoro-12-(((6S,8aS)-hexahydro-1H-pyrrolo[2,1-c][1,4]oxazin-6-yl)methoxy)-5-methyl-5a,6,7,8,9,10-hexahydro-5H-4-oxa-3,10a,11,13,14-pentaaza-6,9-methanonaphtho[1,8-ab]heptalen-2-yl)-5-methylaniline]	28.4 nM	5840 nM
Cc1c(F)c(N)cc(-c2nc3c4c(nc(OCC5(CN6CCO[C@H](CF)C6)CC5)nc4c2F)N2C[C@H]4CC[C@H](N4)[C@H]2[C@H](C)O3)c1C(F)(F)F [Compound 171, 2-Fluoro-5-((5S,5aS,6S,9R)-1-fluoro-12-((1-(((S)-2-(fluoromethyl)morpholino)methyl)cyclopropyl)methoxy)-5-methyl-5a,6,7,8,9,10-hexahydro-5H-4-oxa-3,10a,11,13,14-pentaaza-6,9-methanonaphtho[1,8-ab]heptalen-2-yl)-3-methyl-4-(trifluoromethyl)aniline]	1.33 nM	904 nM
C[C@@H]1Oc2nc(-c3cc(N)cc4c3CC4)c(F)c3nc(OC[C@@]45CCCN4C[C@H](F)C5)nc(c23)N2C[C@H]3CC[C@H](N3)[C@@H]12 [Compound 201, 5-((5S,5aS,6S,9R)-1-Fluoro-12-(((2R,7aS)-2-fluorotetrahydro-1H-pyrrolizin-7a(5H)-yl)methoxy)-5-methyl-5a,6,7,8,9,10-hexahydro-5H-4-oxa-3,10a,11,13,14-pentaaza-6,9-methanonaphtho[1,8-ab]heptalen-2-yl)bicyclo[4.2.0]octa-1(6),2,4-trien-3-amine]	407 nM	10600 nM
Cc1cc(N)c(F)c(-c2nc3c4c(nc(OC[C@@H]5CC[C@H]6COCCN65)nc4c2F)N2C[C@H]4CC[C@H](N4)[C@H]2[C@H](C)O3)c1C1CC1 [Compound 98, 4-Cyclopropyl-2-fluoro-3-((5S,5aS,6S,9R)-1-fluoro-12-(((6S,8aS)-hexahydro-1H-pyrrolo[2,1-c][1,4]oxazin-6-yl)methoxy)-5-methyl-5a,6,7,8,9,10-hexahydro-5H-4-oxa-3,10a,11,13,14-pentaaza-6,9-methanonaphtho[1,8-ab]heptalen-2-yl)-5-methylaniline]	26.2 nM	2750 nM
Cc1c(F)c(N)cc(-c2nc3c4c(nc(OCCC5(N6CCOCC6)COC5)nc4c2F)N2C[C@H]4CC[C@H](N4)[C@H]2[C@H](C)O3)c1C(F)(F)F [Compound 149, 2-Fluoro-5-((5S,5aS,6S,9R)-1-fluoro-5-methyl-12-(2-(3-morpholinooxetan-3-yl)ethoxy)-5a,6,7,8,9,10-hexahydro-5H-4-oxa-3,10a,11,13,14-pentaaza-6,9-methanonaphtho[1,8-ab]heptalen-2-yl)-3-methyl-4-(trifluoromethyl)aniline]	186 nM	20000 nM
Cc1c(F)c(N)cc(-c2nc3c4c(nc(OC[C@@H]5CC[C@H]6COCCN65)nc4c2F)N2C[C@H]4CC[C@H](N4)[C@H]2[C@H](C)O3)c1CC(F)(F)F [Compound 113, 2-fluoro-5-((5S,5aS,6S,9R)-1-fluoro-12-(((6S,8aS)-hexahydro-1H-pyrrolo[2,1-c][1,4]oxazin-6-yl)methoxy)-5-methyl-5a,6,7,8,9,10-hexahydro-5H-4-oxa-3,10a,11,13,14-pentaaza-6,9-methanonaphtho[1,8-ab]heptalen-2-yl)-3-methyl-4-(2,2,2-trifluoroethyl)aniline]	2.91 nM	1170 nM
Cc1c(F)c(N)cc(-c2nc3c4c(nc(OCC[C@@H]5CC[C@H]6COCCN56)nc4c2F)N2C[C@H]4CC[C@H](N4)[C@H]2[C@H](C)O3)c1C(F)(F)F [Compound 154, 2-Fluoro-5-((5S,5aS,6S,9R)-1-fluoro-12-(2-((6S,8aS)-hexahydro-1H-pyrrolo[2,1-c][1,4]oxazin-6-yl)ethoxy)-5-methyl-5a,6,7,8,9,10-hexahydro-5H-4-oxa-3,10a,11,13,14-pentaaza-6,9-methanonaphtho[1,8-ab]heptalen-2-yl)-3-methyl-4-(trifluoromethyl)aniline]	20.5 nM	4100 nM
Cc1nc(N)cc(-c2nc3c4c(nc(OCC5(CN6CC7(CCC7(F)F)C6)CC5)nc4c2F)N2C[C@H]4CC[C@H](N4)[C@H]2[C@H](C)O3)c1C(F)(F)F [Compound 285, 4-((5S,5aS,6S,9R)-12-((1-((5,5-difluoro-2-azaspiro[3.3]heptan-2-yl)methyl)cyclopropyl)methoxy)-1-fluoro-5-methyl-5a,6,7,8,9,10-hexahydro-5H-4-oxa-3,10a,11,13,14-pentaaza[6,9]methanonaphtho[1,8-ab]heptalene-2-yl)-6-methyl-5-(trifluoromethyl)pyridin-2-amine]	3.05 nM	608 nM
Cc1nc(N)c(C)c(-c2nc3c4c(nc(OC[C@@]56CCCN5C[C@H](F)C6)nc4c2F)N2C[C@H]4CC[C@H](N4)[C@H]2[C@H](C)O3)c1C(F)(F)F [Compound 198, 4-((5S,5aS,6S,9R)-1-Fluoro-12-(((2R,7aS)-2-fluorotetrahydro-1H-pyrrolizin-7a(5H)-yl)methoxy)-5-methyl-5a,6,7,8,9,10-hexahydro-5H-4-oxa-3,10a,11,13,14-pentaaza-6,9-methanonaphtho[1,8-ab]heptalen-2-yl)-3,6-dimethyl-5-(trifluoromethyl)pyridin-2-amine]	13 nM	3720 nM
C[C@@H]1Oc2nc(-c3cc(N)c(=O)n(C)c3C(F)(F)F)c(F)c3nc(OC[C@@]45CCCN4C[C@H](F)C5)nc(c23)N2C[C@H]3CC[C@H](N3)[C@@H]12 [Compound 184, 3-Amino-5-((5S,5aS,6S,9R)-1-fluoro-12-(((2R,7aS)-2-fluorotetrahydro-1H-pyrrolizin-7a(5H)-yl)methoxy)-5-methyl-5a,6,7,8,9,10-hexahydro-5H-4-oxa-3,10a,11,13,14-pentaaza-6,9-methanonaphtho[1,8-ab]heptalene-2-yl)-1-methyl-6-(trifluoromethyl)pyridin-2(1H)-one]	147 nM	20000 nM
Cc1nc(N)cc(-c2nc3c4c(nc(OCC56C[C@@H](F)CN5C[C@H](F)C6)nc4c2F)N2C[C@H]4CC[C@H](N4)[C@H]2[C@H](C(F)(F)F)O3)c1C(F)(F)F [Compound 261, 4-((5R,5aS,6S,9R)-12-(((2R,6R)-2,6-Difluorotetrahydro-1H-pyrrolizin-7a(5H)-yl)methoxy)-1-fluoro-5-(trifluoromethyl)-5a,6,7,8,9,10-hexahydro-5H-4-oxa-3,10a,11,13,14-pentaaza-6,9-methanonaphtho[1,8-ab]heptalen-2-yl)-6-methyl-5-(trifluoromethyl)pyridin-2-amine]	107 nM	6100 nM
Cc1nc(N)cc(-c2nc3c4c(nc(OCC5(CN6CC7CCC(C6)O7)CC5)nc4c2F)N2C[C@H]4CC[C@H](N4)[C@H]2[C@H](C)O3)c1C(F)(F)F [Compound 207, 4-((5S,5aS,6S,9R)-12-((1-((8-oxa-3-azabicyclo[3.2.1]octan-3-yl)methyl)cyclopropyl)methoxy)-1-fluoro-5-methyl-5a,6,7,8,9,10-hexahydro-5H-4-oxa-3,10a,11,13,14-pentaaza-6,9-methanonaphtho[1,8-ab]heptalene-2-yl)-6-methyl-5-(trifluoromethyl)pyridin-2-amine]	2.36 nM	1420 nM
Cc1nc(N)cc(-c2nc3c4c(nc(OCC5(CN6CC(C)(F)C6)CC5)nc4c2F)N2C[C@H]4CC[C@H](N4)[C@H]2[C@H](C)O3)c1C(F)(F)F [Compound 289, 4-((5S,5aS,6S,9R)-1-fluoro-12-((1-((3-fluoro-3-methylazetidin-1-yl)methyl)cyclopropyl)methoxy)-5-methyl-5a,6,7,8,9,10-hexahydro-5H-4-oxa-3,10a,11,13,14-pentaaza-6,9-methanonaphtho[1,8-ab]heptalene-2-yl)-6-methyl-5-(trifluoromethyl)pyridin-2-amine]	3.15 nM	573 nM
